{"source": "patent US6407103B2", "about": "“Indeno [1,2-c] pyrazol-4-ones and their uses” (Bristol-Myers Squibb Pharma Company, priority 1998, dated 2002)", "data": [{"units": {"melting point": "°C"}, "values": [{"molecule": "COc1ccc(-c2[nH]nc3c2C(=O)c2c(NC(=O)C4CCC4)cccc2-3)cc1", "note": "[Example VII, 3-(4-methoxyphenyl)-5-(cyclobutanecarboxamido)indeno[1,2-c]pyrazol-4-one]", "melting point": 297}, {"molecule": "COc1ccc(-c2[nH]nc3c2C(=O)c2c(NC(=O)Cc4ccccc4)cccc2-3)cc1", "note": "[Example VIII, 3-(4-methoxyphenyl)-5-(phenylacetamido)indeno[1,2-c]pyrazol-4-one]", "melting point": 280}, {"molecule": "COc1ccc(-c2[nH]nc3c2C(=O)c2c(NC(=O)Cc4ccc(Cl)cc4)cccc2-3)cc1", "note": "[Example X, 3-(4-methoxyphenyl)-5-((4-chlorophenyl)acetamido)indeno[1,2-c]pyrazol-4-one]", "melting point": 238}, {"molecule": "CC(=O)Nc1cccc2c1C(=O)c1c-2n[nH]c1-c1sccc1C", "note": "[Example XC, 3-(3-methyl-2-thienyl)-5-(acetamido)indeno[1,2-c]pyrazol-4-one]", "melting point": 275}, {"molecule": "CCc1[nH]nc2c1C(=O)c1c(NC(N)=O)cccc1-2", "note": "[Example XCI, 3-(ethyl)-5-(carbamoylamino)indeno[1,2-c]pyrazol-4-one]", "melting point": "> 250"}, {"molecule": "CCCc1[nH]nc2c1C(=O)c1c(NC(N)=O)cccc1-2", "note": "[Example XCII, 3-(n-propyl)-5-(carbamoylamino)indeno[1,2-c]pyrazol-4-one]", "melting point": 187}, {"molecule": "CC(C)c1[nH]nc2c1C(=O)c1c(NC(N)=O)cccc1-2", "note": "[Example XCIII, 3-(i-propyl)-5-(carbamoylamino)indeno[1,2-c]pyrazol-4-one]", "melting point": "> 250"}, {"molecule": "CCOC(=O)c1ccc(-c2[nH]nc3c2C(=O)c2c(NC(N)=O)cccc2-3)s1", "note": "[Example XCIX, 3-(5-carboethoxy-2-thienyl)-5-(carbamoylamino)indeno[1,2-c]pyrazol-4-one]", "melting point": "> 280"}, {"molecule": "Cc1ccsc1-c1[nH]nc2c1C(=O)c1c(NC(N)=O)cccc1-2", "note": "[Example XCVII, 3-(3-methyl-2-thienyl)-5-(carbamoylamino)indeno[1,2-c]pyrazol-4-one]", "melting point": 270}, {"molecule": "Cc1ccc(-c2[nH]nc3c2C(=O)c2c(NC(N)=O)cccc2-3)s1", "note": "[Example XCVIII, 3-(5-methyl-2-thienyl)-5-(carbamoylamino)indeno[1,2-c]pyrazol-4-one]", "melting point": "> 280"}, {"molecule": "COc1ccc(-c2[nH]nc3c2C(=O)c2c(NC(=O)Cc4cccc(OC)c4)cccc2-3)cc1", "note": "[Example XI, 3-(4-methoxyphenyl)-5-((3-methoxyphenyl)acetamido)indeno[1,2-c]pyrazol-4-one]", "melting point": "> 300"}, {"molecule": "COc1ccc(CC(=O)Nc2cccc3c2C(=O)c2c-3n[nH]c2-c2ccc(OC)cc2)cc1", "note": "[Example XII, 3-(4-methoxyphenyl)-5-((4-methoxyphenyl)acetamido)indeno[1,2-c]pyrazol-4-one]", "melting point": 280}, {"molecule": "COc1ccc(-c2[nH]nc3c2C(=O)c2c(NC(=O)Cc4ccc(OC)c(OC)c4)cccc2-3)cc1", "note": "[Example XIII, 3-(4-methoxyphenyl)-5-((3,4-dimethoxyphenyl)acetamido)indeno[1,2-c]pyrazol-4-one]", "melting point": "> 300"}, {"molecule": "COc1ccc(-c2[nH]nc3c2C(=O)c2c(NC(=O)Cc4cc(OC)ccc4OC)cccc2-3)cc1", "note": "[Example XIV, 3-(4-methoxyphenyl)-5-((2,5-dimethoxyphenyl)acetamido)indeno[1,2-c]pyrazol-4-one]", "melting point": 226}, {"molecule": "COc1ccc(-c2[nH]nc3c2C(=O)c2c(NC(=O)Cc4ccccc4OC)cccc2-3)cc1", "note": "[Example XIX, 3-(4-methoxyphenyl)-5-((2-methoxyphenyl)acetamido)indeno[1,2-c]pyrazol-4-one]", "melting point": 255}, {"molecule": "COc1ccc(-c2[nH]nc3c2C(=O)c2c(NC(=O)Cc4ccc(N=[N+]=[N-])cc4)cccc2-3)cc1", "note": "[Example XL, 3-(4-methoxyphenyl)-5-((4-azidophenyl)acetamido)indeno[1,2-c]pyrazol-4-one]", "melting point": "> 300"}, {"molecule": "COc1ccc(-c2[nH]nc3c2C(=O)c2c(NC(=O)Cc4ccc(N)cc4)cccc2-3)cc1", "note": "[Example XLI, 3-(4-methoxyphenyl)-5-((4-aminophenyl)acetamido)indeno[1,2-c]pyrazol-4-one]", "melting point": 283}, {"molecule": "COc1ccc(-c2[nH]nc3c2C(=O)c2c(NC(=O)Nc4ccccc4)cccc2-3)cc1", "note": "[Example XLII, 3-(4-methoxyphenyl)-5-((phenylcarbamoyl)amino)indeno [1,2-c]pyrazol-4-one]", "melting point": "> 300"}, {"molecule": "CC(=O)Nc1cccc2c1C(=O)c1c-2n[nH]c1-c1ccncc1", "note": "[Example XLIX, 3-(4-pyridyl)-5-(acetamido)indeno [1,2-c]pyrazol-4-one]", "melting point": "> 300"}, {"molecule": "CC(=O)Nc1cccc2c1C(=O)c1c-2n[nH]c1-c1ccc(O)cc1", "note": "[Example XLVI, 3-(4-hydroxyphenyl)-5-(acetamido)indeno[1,2-c]pyrazol-4-one]", "melting point": "> 300"}, {"molecule": "COc1ccc(-c2[nH]nc3c2C(=O)c2c(NC=O)cccc2-3)cc1", "note": "[Example XLVII, 3-(4-methoxyphenyl)-5-(formamido)indeno[1,2-c]pyrazol-4-one]", "melting point": 280}, {"molecule": "CC(=O)Nc1cccc2c1C(=O)c1c-2n[nH]c1-c1cccnc1", "note": "[Example XLVIII, 3-(3-pyridyl)-5-(acetamido)indeno [1,2-c]pyrazol-4-one]", "melting point": "> 300"}, {"molecule": "COc1ccccc1-c1[nH]nc2c1C(=O)c1c(NC(C)=O)cccc1-2", "note": "[Example XV, 3-(2-methoxyphenyl)-5-(acetamido)indeno[1,2-c]pyrazol-4-one]", "melting point": 276}, {"molecule": "COc1ccc(-c2[nH]nc3c2C(=O)c2c(NC(C)=O)cccc2-3)cc1OC", "note": "[Example XVI, 3-(3,4-dimethoxyphenyl)-5-(acetamido)indeno[1,2-c]pyrazol-4-one]", "melting point": "> 300"}, {"molecule": "COc1ccc(-c2[nH]nc3c2C(=O)c2c(NC(=O)Cc4ccccc4Cl)cccc2-3)cc1", "note": "[Example XXII, 3-(4-methoxyphenyl)-5-((2-chlorophenyl)acetamido)indeno[1,2-c]pyrazol-4-one]", "melting point": 300}, {"molecule": "COc1ccc(-c2[nH]nc3c2C(=O)c2c(NC(=O)CN)cccc2-3)cc1", "note": "[Example XXIII, 3-(4-methoxyphenyl)-5-(aminoacetamido)indeno[1,2-c]pyrazol-4-one]", "melting point": "> 300"}, {"molecule": "COc1ccc(-c2[nH]nc3c2C(=O)c2c(NC(=O)CNCCO)cccc2-3)cc1", "note": "[Example XXIV, 3-(4-methoxyphenyl)-5-((2-hydroxyethyl)aminoacetamido)indeno[1,2-c]pyrazol-4-one]", "melting point": 243}, {"molecule": "COc1ccc(-c2[nH]nc3c2C(=O)c2c(NC(=O)CN4CCCCC4)cccc2-3)cc1", "note": "[Example XXIX, 3-(4-methoxyphenyl)-5-(piperidinoacetamido)indeno[1,2-c]pyrazol-4-one]", "melting point": 291}, {"molecule": "COc1ccc(-c2[nH]nc3c2C(=O)c2c(NC(=O)CN4CCNCC4)cccc2-3)cc1", "note": "[Example XXVI, 3-(4-methoxyphenyl)-5-(piperazinoacetamido)indeno[1,2-c]pyrazol-4-one]", "melting point": 277}, {"molecule": "COc1ccc(-c2[nH]nc3c2C(=O)c2c(NC(=O)CN4CCN(C)CC4)cccc2-3)cc1", "note": "[Example XXVII, 3-(4-methoxyphenyl)-5-(4-methylpiperazinoacetamido)indeno[1,2-c]pyrazol-4-one]", "melting point": "> 300"}, {"molecule": "COc1ccc(-c2[nH]nc3c2C(=O)c2c(NC(=O)CN4CCN(CCO)CC4)cccc2-3)cc1", "note": "[Example XXVIII, 3-(4-methoxyphenyl)-5-(4-(2-hydroxyethyl)piperazinoacetamido)indeno[1,2-c]pyrazol-4-one]", "melting point": "> 300"}, {"molecule": "COc1ccc(-c2[nH]nc3c2C(=O)c2c(NC(=O)CN4CCC(CN)CC4)cccc2-3)cc1", "note": "[Example XXX, 3-(4-methoxyphenyl)-5-(4-(aminomethyl)piperidinoacetamido)indeno[1,2-c]pyrazol-4-one]", "melting point": "> 300"}, {"molecule": "CCNCC(=O)Nc1cccc2c1C(=O)c1c-2n[nH]c1-c1ccc(OC)cc1", "note": "[Example XXXI, 3-(4-methoxyphenyl)-5-(ethylaminoacetamido)indeno[1,2-c]pyrazol-4-one]", "melting point": 250}, {"molecule": "COc1ccc(-c2[nH]nc3c2C(=O)c2c(NC(=O)CN4CCSCC4)cccc2-3)cc1", "note": "[Example XXXII, 3-(4-methoxyphenyl)-5-(thiomorpholinoacetamido)indeno[1,2-c]pyrazol-4-one]", "melting point": 298}, {"molecule": "COc1ccc(-c2[nH]nc3c2C(=O)c2c(NC(=O)CN4CCOCC4)cccc2-3)cc1", "note": "[Example XXXIII, 3-(4-methoxyphenyl)-5-(morpholinoacetamido)indeno[1,2-c]pyrazol-4-one]", "melting point": 295}, {"molecule": "COc1ccc(-c2[nH]nc3c2C(=O)c2c(NC(=O)CN4CCCC4)cccc2-3)cc1", "note": "[Example XXXIV, 3-(4-methoxyphenyl)-5-(pyrrolidinoacetamido)indeno[1,2-c]pyrazol-4-one]", "melting point": 279}, {"molecule": "COc1ccc(-c2[nH]nc3c2C(=O)c2c(NC(=O)Cc4ccc(NC(=O)CN(C)C)cc4)cccc2-3)cc1", "note": "[Example XXXIX, 3-(4-methoxyphenyl)-5-((4-((N,N-dimethylamino)methylcarbonylamino)phenyl)acetamido) indeno[1,2-c]pyrazol-4-one]", "melting point": "> 300"}, {"molecule": "COc1ccc(-c2[nH]nc3c2C(=O)c2c(NC(=O)Cc4ccc(NC(C)=O)cc4)cccc2-3)cc1", "note": "[Example XXXVI, 3-(4-methoxyphenyl)-5-((4-acetamidophenyl)acetamido)indeno[1,2-c]pyrazol-4-one]", "melting point": 268}, {"molecule": "COC(=O)Nc1ccc(CC(=O)Nc2cccc3c2C(=O)c2c-3n[nH]c2-c2ccc(OC)cc2)cc1", "note": "[Example XXXVII, 3-(4-methoxyphenyl)-5-((4-(methoxycarbonylamino)phenyl)acetamido) indeno[1,2-c]pyrazol-4-one]", "melting point": 257}, {"molecule": "COc1ccc(-c2[nH]nc3c2C(=O)c2c(NC(=O)Cc4ccc(NC(=O)CN)cc4)cccc2-3)cc1", "note": "[Example XXXVIII, 3-(4-methoxyphenyl)-5-((4-(aminomethylcarbonylamino)phenyl)acetamido) indeno[1,2-c]pyrazol-4-one]", "melting point": 228}]}]}
